# Article PMC6219536, “Strategic single point mutation yields a solvent- and salt-stable transaminase from Virgibacillus sp. in soluble form” (Scientific Reports, 2018)
# Columns and labels:
# [1] = target: T1, VbTA T16F (Virgibacillus pantothenticus, UniProt A0A4P1LYG1); assay: X-ray crystal structure, […] Å; assay type: binding; conditions: active site; non-covalent, no aldimine bond with K273
# T1 construct: N-terminal His-tag (pET100-D-TOPO), codon-optimised, E. coli BL21(DE3), His-trap purified; native 448 residues (1350 bp); homodimer 104 kDa; residues 2-444 in crystal
# T1 sequence (A0A4P1LYG1 entry or part of it, stated change not applied): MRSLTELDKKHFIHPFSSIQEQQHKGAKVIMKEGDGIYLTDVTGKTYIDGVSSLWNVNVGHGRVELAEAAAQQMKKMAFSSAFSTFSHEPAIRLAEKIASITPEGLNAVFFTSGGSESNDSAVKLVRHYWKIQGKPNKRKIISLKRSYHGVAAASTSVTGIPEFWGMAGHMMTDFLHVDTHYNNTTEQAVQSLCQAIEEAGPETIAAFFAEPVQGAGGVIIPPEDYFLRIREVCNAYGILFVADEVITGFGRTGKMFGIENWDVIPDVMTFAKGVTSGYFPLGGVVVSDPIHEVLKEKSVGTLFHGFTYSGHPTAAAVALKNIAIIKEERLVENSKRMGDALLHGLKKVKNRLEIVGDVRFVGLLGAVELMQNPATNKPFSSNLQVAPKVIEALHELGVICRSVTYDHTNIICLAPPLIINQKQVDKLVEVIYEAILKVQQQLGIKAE
# [2] = target: VbTA T16F (transaminase from Virgibacillus sp. 21D, T16F mutant) (Virgibacillus sp. 21D); assay: SEC; Superdex 200 (10/300) GL, 20 mM phosphate buffer pH 8.0, 150 mM NaCl, 0.2 mL/min, 4 °C, calibrated with MW markers
Molecule,"X-ray crystal structure, 2.0 Å [1]",stoichiometry N [2]
Cc1ncc(COP(=O)(O)O)c(C=O)c1O [PLP],One molecule of PLP was bound at the active site,
"VbTA T16F (transaminase from Virgibacillus sp. 21D, T16F mutant) (enzyme)",,2
